ChEMBL document CHEMBL1153899, “Discovery of benzothiazole derivatives as efficacious and enterocyte-specific MTP inhibitors” (Bioorg Med Chem Lett, 2009)
Active and inactive are the calls of the source. No cut-off for these calls is given here.

Tests used:
HepG2 = assay: Inhibition of apoB secretion in human HepG2 cells after 40 hrs by ELISA; type: functional, cell-based; conditions: HepG2, 40 h
[1] = Inhibition of MTP from dog liver microsomes by scintillation counting; parameters: species or system Canis lupus familiaris, Microsome
Mus musculus [2] = assay: Increase in peptide YY level in 3-day high fat diet fed C57BL/6 mouse at 10 mg/kg, po daily for 3 days; type: functional, organism-based; parameters: dose 10 mg/kg
Mus musculus [3] = assay: Decrease in plasma triglyceride level in […] C57BL/6 mouse at 10 mg/kg, po daily for 3 days measured after 6 hrs; type: functional
Mus musculus [4] = assay: Decrease in total food intake in 3-day high fat diet fed C57BL/6 mouse at 10 mg/kg, po daily for 3 days; type: functional
Mus musculus [5] = assay: Decrease in body weight in […] at 10 mg/kg, po daily for 3 days; type: functional, C57BL/6

IC50 (HepG2) | IC50 [1] | Structure (SMILES) | Activity (Mus musculus [2]) | Activity (Mus musculus [3]) | Activity (Mus musculus [4]) | Activity (Mus musculus [5])
2.9 nM | 4.7 nM | Cc1cccc(C(=O)Nc2ccc3nc(C(=O)N[C@H](C(=O)N(C)Cc4ccc(F)cc4)c4ccccc4)sc3c2)c1-c1ccc(C(C)(C)C)cc1 | Active | Active | Active | Active
2.4 nM | 7.9 nM | COc1cccc(C(=O)Nc2ccc3nc(C(=O)N[C@H](C(=O)N(C)Cc4ccc(F)cc4)c4ccccc4)sc3c2)c1-c1ccc(C(C)(C)C)cc1 | Active | Active | Active | Active

Further lines, the compound ahead of its results:

Structure (SMILES) | IC50 (HepG2) | IC50 [1] | Activity (Mus musculus [2]) | Activity (Mus musculus [3]) | Activity (Mus musculus [4]) | Activity (Mus musculus [5])
CC(C)(C)c1ccc(-c2ccccc2C(=O)Nc2ccc3nc(C(=O)N[C@H](C(=O)N4CCC(F)(F)C4)c4ccccc4)sc3c2)cc1 | 8.8 nM |  |  |  |  | 
CC(C)(C)c1ccc(-c2ccccc2C(=O)Nc2ccc3nc(C(=O)N[C@@H](C(=O)N4CCCC4)c4ccccc4)sc3c2)cc1 | 34.8 nM |  |  |  |  | 
CCCCN(C)C(=O)[C@@H](NC(=O)c1nc2ccc(NC(=O)c3ccccc3-c3ccc(C(C)(C)C)cc3)cc2s1)c1ccccc1 | 6.5 nM | 9.5 nM |  |  |  | 
CC(C)(C)c1ccc(-c2ccccc2C(=O)Nc2ccc3nc(C(=O)N[C@H](C(=O)N4CCCC4)c4ccccc4)sc3c2)cc1 | 1.5 nM | 2.6 nM |  |  |  | 
CCCCCNC(=O)[C@@H](NC(=O)c1nc2ccc(NC(=O)c3ccccc3-c3ccc(C(C)(C)C)cc3)cc2s1)c1ccccc1 | 3.1 nM | 8.4 nM |  |  |  | 
